Measurements taken from patent US7351737B2, “4-[(8-substituted)-6-chromanoyl]-and 4-[8-substituted)-chroman-6-YL-ethynyl]-benzoic and phenylacetic acids, their esters and salts having cytochrome P450RAI inhibitory activity” (Allergan, Inc., priority 2002, dated 2008).

Experiments:
skin of fuzzy rats = assay: Topical skin irritation test; format: in vivo, female fuzzy rats (Hsd:FUZZY-fz); details: topical in acetone, daily Day 1-14, group average of grade 0-4
Description: The topical retinoid all-trans-retinoic acid (ATRA) and oral retinoids such as 13-cis RA and etretinate are known to induce substantial skin irritation in humans. This irritation is a direct result of activation of the RAR nuclear receptors. Analysis of retinoid topical irritation is also a highly reproducable method of determining in vivo retinoid potency. The female fuzzy rats provide a convenient animal model of topical irritation, since retinoid-induced skin flaking and abrasion can be readily scored by eye, while their larger size than those of mice also allows multiple sampling of serum for clinical analyses. Topical application of P450RAI inhibitors should cause an increase in the endogenous levels of ATRA that would result in ATRA-induced irritation in skin of hairless mice. In these tests female fuzzy rats ((Hsd:FUZZY-fz), 6-7 weeks old, were obtained from Harlan Sprague-Dawley (Indianapolis, Ind.). The animals were about 8-9 weeks old at the start of the experiments. Food (Purina Rodent Chow 5001) and water purified by reverse osmosis were provided ad libitum. The rats were housed individually throughout the dosing period. Test chemicals were dissolved in acetone (vehicle) for application to the backs of the rats. Two days prior to actual administration of the test compounds, rats were handled daily and dosed with vehicle at a volume of 0.5 ml/kg. Starting on Day 1 thought Day 14 (dosing period), animals were dosed with the vehicle or compound(s) according to their group assignment. The rats in the tests were observed daily and the dorsal skin was graded for the degree of erythema/eschar and overall appearance. The scoring was in accordance with Table 2, below. [table] Daily group average was calculated by dividing the sum of the individual grade by the number of animals in each treatment group. The attached data in Table 3 indicates the retinoid-mimetic effects of some P450RAI inhibitors on the skin of fuzzy rats in the above described tests and in accordance with the above-indicated scoring.

RARα = biological target: T1, RARα (Homo sapiens, UniProt P10276); assay: chimeric receptor transactivation assay, RARα; format: cell-based; details: for RAR α (EFFICACY): value in brackets
T1 sequence (P10276 183-417 limits assumed): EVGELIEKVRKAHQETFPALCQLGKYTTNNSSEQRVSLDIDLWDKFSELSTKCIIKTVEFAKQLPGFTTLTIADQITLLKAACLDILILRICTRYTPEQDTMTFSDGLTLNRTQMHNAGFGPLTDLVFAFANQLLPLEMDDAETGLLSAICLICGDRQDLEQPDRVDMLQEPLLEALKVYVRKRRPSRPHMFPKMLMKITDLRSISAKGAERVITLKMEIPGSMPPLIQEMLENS
Description: (§1) Assays described below measure the ability of a compound to bind to, and/or activate various retinoid receptor subtypes. When in these assays a compound binds to a given receptor subtype and activates the transcription of a reporter gene through that subtype, then the compound is considered an agonist of that receptor subtype. […] In the below described assays the ability of the compounds to bind to RARα, RARβ, RARγ, RXRα, RXRβ and RXRγ receptors, and the ability or inability of the compounds to activate transcription of a reporter gene through these receptor subtypes can be tested.
(§2) As far as specific assays are concerned, a chimeric receptor transactivation assay which tests for agonist-like activity in the RARα, RARβ, and RARγ, receptor subtypes, and which is based on work published by Feigner P. L. and Holm M. (1989) Focus, 112 is described in detail in U.S. Pat. No. 5,455,265. The specification of U.S. Pat. No. 5,455,265 is hereby expressly incorporated by reference. The numeric results obtained with several preferred compounds of this invention in this assay are shown below in Table 1.
(§3) A holoreceptor transactivation assay and a ligand binding assay which measure the antagonist/agonist like activity of the compounds of the invention, or their ability to bind to the several retinoid receptor subtypes, respectively, are described in published PCT Application No. WO WO93/11755 (particularly on pages 30-33 and 37-41) published on Jun. 24, 1993, the specification of which is also incorporated herein by reference. A detailed experimental procedure for holoreceptor transactivations has been described by Heyman et al. Cell 68, 397-406, (1992); Allegretto et al. J. Biol. Chem. 268, 26625-26633, and Mangelsdorf et al. The Retinoids: Biology, Chemistry and Medicine, pp 319-349, Raven Press Ltd., New York, which are expressly incorporated herein by reference. The results obtained in this assay are expressed in EC50 numbers, as they are also in the chimeric receptor transactivation assay. The results of ligand binding assay are expressed in Kd numbers. (See Cheng et al. Biochemical Pharmacology Vol. 22 pp 3099-3108, expressly incorporated herein by reference.)

RARγ = biological target: T2, RARγ (Homo sapiens, UniProt P13631); assay: chimeric receptor transactivation assay, RARγ; format: cell-based; details: for RAR γ (EFFICACY): value in brackets
T2 sequence (P13631 185-419 limits assumed): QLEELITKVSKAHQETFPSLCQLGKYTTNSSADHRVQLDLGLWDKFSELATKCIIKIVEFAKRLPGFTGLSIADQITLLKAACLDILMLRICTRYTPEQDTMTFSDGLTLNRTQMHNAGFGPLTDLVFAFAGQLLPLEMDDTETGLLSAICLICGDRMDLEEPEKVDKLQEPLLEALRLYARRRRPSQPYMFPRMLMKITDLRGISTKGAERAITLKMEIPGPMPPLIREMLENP
Description: as §1, §2, §3

RARβ = biological target: T3, RARβ (Homo sapiens, UniProt P10826); assay: chimeric receptor transactivation assay, RARβ; format: cell-based; details: first item of cell EC50/(EFFICACY)/Kd, read-out: RAR β EC50
T3 sequence (P10826 183-417 limits assumed): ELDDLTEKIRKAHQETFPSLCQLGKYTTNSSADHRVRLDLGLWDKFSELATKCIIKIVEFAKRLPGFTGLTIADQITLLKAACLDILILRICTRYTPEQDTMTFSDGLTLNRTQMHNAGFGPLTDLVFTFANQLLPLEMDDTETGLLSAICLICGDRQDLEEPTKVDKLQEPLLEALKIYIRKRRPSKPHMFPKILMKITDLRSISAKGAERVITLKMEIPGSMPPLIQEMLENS
Description: as §1
as §2, with “1. […]” for “1.”

Row | Structure (SMILES) | Irritation Score on day 14 (skin of fuzzy rats; 1% compound + 0.1% retinol) | Irritation Score on day 14 (skin of fuzzy rats; 1% compound alone) | RAR α (EFFICACY) (RARα) | RAR γ (EFFICACY) (RARγ) | further results
1 | C#Cc1cc(C(=O)Oc2ccc(CC(=O)OCC)cc2)cc2c1OC(C)(C)CC2(C)C [Compound 2, 8-Ethynyl-2,2,4,4-tetramethyl-chroman-6-carboxylic acid 4-ethoxycarbonylmethyl-phenyl ester] | 1.6 | 0 | – | – | –
2 | C#Cc1cc(C(=O)Oc2ccc(CC(=O)O)c(F)c2)cc2c1OC(C)(C)CC2(C)C [Compound 4, 8-Ethynyl-2,2,4,4-tetramethyl-chroman-6-carboxylic acid-4-carboxymethyl-3-fluoro-phenyl ester] | 3.4 | 1.4 | 20 | 20 | EC50 (RARβ): 263 nM
3 | C#Cc1cc(C(=O)Oc2ccc(CC(=O)O)cc2)cc2c1OC(C)(C)CC2(C)C [Compound 1, 8-Ethynyl-2,2,4,4-tetramethyl-chroman-6-carboxylic acid 4-carboxymethyl-phenyl ester] | – | – | – | – | Irritation Score on day 14 (skin of fuzzy rats; 3% compound + 0.1% retinol): 1; Irritation Score on day 14 (skin of fuzzy rats; 3% compound alone): 2.6
4 | C#Cc1cc(C#Cc2ccc(CC(=O)O)c(F)c2)cc2c1OC(C)(C)CC2(C)C [Compound 41, [4-(8-Ethynyl-2,2,4,4-tetramethyl-chroman-6-ylethynyl)-2-fluoro-phenyl]-acetic acid] | – | – | 10 | 20 | –
5 | C#Cc1cc(C(=O)Oc2ccc(CC(=O)OCOC(C)=O)c(F)c2)cc2c1OC(C)(C)CC2(C)C [Compound 5, 8-Ethynyl-2,2,4,4-tetramethyl-chroman-6-carboxylic acid 4-acetoxymethoxycarbonylmethyl-3-fluoro-phenyl ester] | – | – | 10 | – | Irritation Score on day 14 (skin of fuzzy rats; 0.1% compound + 0.1% retinol): 2.2; Irritation Score on day 14 (skin of fuzzy rats; 0.1% compound alone): 0.4
6 | C#Cc1cc(C(=O)Oc2ccc(CC(=O)OCOC(C)=O)cc2)cc2c1OC(C)(C)CC2(C)C [Compound 3, 8-Ethynyl-2,2,4,4-tetramethyl-chroman-6-carboxylic acid 4-acetoxymethoxycarbonylmethyl-phenyl ester] | 2.4 | 0 | – | – | –
7 | C#Cc1cc(C#Cc2ccc(CC(=O)O)cc2)cc2c1OC(C)(C)CC2(C)C [Compound 40, [4-(8-Ethynyl-2,2,4,4-tetramethyl-chroman-6-ylethynyl)-phenyl]-acetic acid] | – | – | 15 | 30 | EC50 (RARα; first item of cell EC50/(EFFICACY)/Kd, read-out: RAR α EC50): 129 nM; EC50 (RARγ; first item of cell EC50/(EFFICACY)/Kd, read-out: RAR γ EC50): 149 nM; EC50 (RARβ): 101 nM
